Measured values as given in ChEMBL document CHEMBL1201862, “PubChem BioAssay data set” (2004).
Active and inactive are the calls of the source.

Experiments:
[1] = biological target: Heat shock protein HSP 90-alpha (Homo sapiens, UniProt P07900); assay: Luminescence-based dose response biochemical high throughput screening assay for inhibitors of the Heat Shock Protein 90 (HSP90). [Related pubchem assays: 1831 (Summary AID.), 1846 (Confirmation screen.), 1789 (Primary screen.)]
[2] = biological target: T1, Corticotropin-releasing factor receptor 2/Corticotropin-releasing factor-binding protein (Homo sapiens, UniProt P24387+Q13324); assay: activators of CRF receptor 2 with binding protein – uHTS hits, confirmation (AID 602473); format: functional; details: read-out: EC50_Mean
T1 sequence (Q13324 whole entry): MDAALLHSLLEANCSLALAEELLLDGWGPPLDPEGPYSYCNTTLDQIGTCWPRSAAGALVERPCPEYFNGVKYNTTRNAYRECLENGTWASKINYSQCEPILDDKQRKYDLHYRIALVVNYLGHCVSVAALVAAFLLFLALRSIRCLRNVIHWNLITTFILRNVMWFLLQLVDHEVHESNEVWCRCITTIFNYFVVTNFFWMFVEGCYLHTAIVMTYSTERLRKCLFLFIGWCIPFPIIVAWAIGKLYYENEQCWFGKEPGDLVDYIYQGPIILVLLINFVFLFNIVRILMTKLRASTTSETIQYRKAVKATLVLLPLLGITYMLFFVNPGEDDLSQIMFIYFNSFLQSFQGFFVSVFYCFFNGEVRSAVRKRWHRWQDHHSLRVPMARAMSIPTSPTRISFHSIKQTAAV
T1 sequence (P24387 whole entry): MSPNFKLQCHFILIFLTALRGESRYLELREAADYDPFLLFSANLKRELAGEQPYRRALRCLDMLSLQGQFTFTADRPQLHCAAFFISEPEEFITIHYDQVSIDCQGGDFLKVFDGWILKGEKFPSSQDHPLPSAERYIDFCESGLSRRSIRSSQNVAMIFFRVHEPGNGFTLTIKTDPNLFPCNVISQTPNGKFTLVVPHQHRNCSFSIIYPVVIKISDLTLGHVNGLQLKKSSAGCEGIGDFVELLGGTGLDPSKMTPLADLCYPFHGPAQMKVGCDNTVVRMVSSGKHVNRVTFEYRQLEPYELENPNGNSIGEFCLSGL

[3] = biological target: T2, Mannose-6-phosphate isomerase (Homo sapiens, UniProt P34949); assay: human PMI inhibitors, high substrate, primary screen, biochemical, fluorescence intensity, high mannose 6-phosphate (AID 1220)
T2 sequence (P34949 whole entry): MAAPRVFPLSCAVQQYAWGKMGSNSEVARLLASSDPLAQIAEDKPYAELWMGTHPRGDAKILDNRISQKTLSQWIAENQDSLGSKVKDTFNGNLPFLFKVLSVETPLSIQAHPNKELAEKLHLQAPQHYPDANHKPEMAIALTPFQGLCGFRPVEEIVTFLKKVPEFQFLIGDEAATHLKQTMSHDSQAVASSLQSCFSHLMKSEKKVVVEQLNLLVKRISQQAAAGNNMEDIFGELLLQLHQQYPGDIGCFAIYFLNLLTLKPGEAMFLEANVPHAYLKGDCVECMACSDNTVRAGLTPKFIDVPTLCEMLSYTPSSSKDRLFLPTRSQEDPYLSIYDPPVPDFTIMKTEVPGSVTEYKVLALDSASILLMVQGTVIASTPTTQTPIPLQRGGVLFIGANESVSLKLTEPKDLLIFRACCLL

[4] = biological target: DNA dC->dU-editing enzyme APOBEC-3G (Homo sapiens, UniProt Q9HC16); assay: Dose Response confirmation of small molecule APOBEC3G DNA Deaminase Inhibitors via a fluorescence-based single-stranded DNA deaminase assay. [Related pubchem assays (depositor defined):AID493012, AID493028]; format: functional
Sequence of DNA dC->dU-editing enzyme APOBEC-3G (Q9HC16 whole entry): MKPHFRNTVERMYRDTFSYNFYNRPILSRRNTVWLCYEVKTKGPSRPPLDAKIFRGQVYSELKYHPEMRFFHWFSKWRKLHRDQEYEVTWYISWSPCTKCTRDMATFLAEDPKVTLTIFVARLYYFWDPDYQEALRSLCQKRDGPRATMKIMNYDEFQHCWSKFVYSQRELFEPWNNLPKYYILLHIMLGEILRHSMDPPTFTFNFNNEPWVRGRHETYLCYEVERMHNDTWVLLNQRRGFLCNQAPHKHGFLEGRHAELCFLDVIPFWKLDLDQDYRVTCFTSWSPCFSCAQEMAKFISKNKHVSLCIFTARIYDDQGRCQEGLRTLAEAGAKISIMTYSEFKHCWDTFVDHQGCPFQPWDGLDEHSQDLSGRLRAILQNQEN

[5] = biological target: Glucose-6-phosphate 1-dehydrogenase (Homo sapiens, UniProt P11413); assay: human G6PD enzyme inhibitors, dose response, selectivity assay for P. falciparum G6PD inhibitor project, biochemical, fluorescence (AID 504792); format: functional
Sequence of Glucose-6-phosphate 1-dehydrogenase (P11413 whole entry): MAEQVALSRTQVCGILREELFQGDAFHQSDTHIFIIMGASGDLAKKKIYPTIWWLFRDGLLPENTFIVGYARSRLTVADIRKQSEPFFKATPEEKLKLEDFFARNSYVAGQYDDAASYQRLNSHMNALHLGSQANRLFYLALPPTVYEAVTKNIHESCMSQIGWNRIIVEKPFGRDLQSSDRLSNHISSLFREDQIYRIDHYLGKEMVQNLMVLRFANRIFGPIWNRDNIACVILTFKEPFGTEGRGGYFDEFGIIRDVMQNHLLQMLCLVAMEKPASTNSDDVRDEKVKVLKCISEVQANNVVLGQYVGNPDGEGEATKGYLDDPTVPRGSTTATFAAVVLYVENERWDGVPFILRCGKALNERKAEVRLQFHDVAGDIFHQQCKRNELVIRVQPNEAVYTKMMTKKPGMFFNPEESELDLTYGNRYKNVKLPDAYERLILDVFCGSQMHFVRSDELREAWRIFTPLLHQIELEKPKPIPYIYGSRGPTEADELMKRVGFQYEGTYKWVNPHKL

[6] = biological target: T3, E3 ubiquitin-protein ligase XIAP (Homo sapiens, UniProt P98170); assay: XIAP antagonists, biochemical, IAP family, fluorescence polarization (AID 1018); format: functional
T3 sequence (P98170 whole entry): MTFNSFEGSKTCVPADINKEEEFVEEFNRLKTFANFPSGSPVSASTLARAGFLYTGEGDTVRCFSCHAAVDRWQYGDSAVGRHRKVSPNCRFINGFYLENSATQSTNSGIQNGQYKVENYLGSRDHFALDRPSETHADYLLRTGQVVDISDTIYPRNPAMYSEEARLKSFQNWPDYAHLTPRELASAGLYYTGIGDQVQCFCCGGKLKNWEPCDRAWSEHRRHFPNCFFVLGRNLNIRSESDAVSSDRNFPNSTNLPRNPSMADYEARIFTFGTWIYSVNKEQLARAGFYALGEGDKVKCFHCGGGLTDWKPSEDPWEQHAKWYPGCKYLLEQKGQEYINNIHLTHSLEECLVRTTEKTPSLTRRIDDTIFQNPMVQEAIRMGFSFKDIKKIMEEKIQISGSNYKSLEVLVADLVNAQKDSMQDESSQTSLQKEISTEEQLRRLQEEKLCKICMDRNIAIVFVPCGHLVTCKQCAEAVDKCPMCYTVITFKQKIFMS

[7] = biological target: T4, Replicative DNA helicase DnaB (Mycobacterium tuberculosis, UniProt P9WMR3); assay: DnaB intein splicing inhibitors, dose response, biochemical, cell-free fluorescence (AID 449749); format: functional
T4 sequence (P9WMR3 whole entry): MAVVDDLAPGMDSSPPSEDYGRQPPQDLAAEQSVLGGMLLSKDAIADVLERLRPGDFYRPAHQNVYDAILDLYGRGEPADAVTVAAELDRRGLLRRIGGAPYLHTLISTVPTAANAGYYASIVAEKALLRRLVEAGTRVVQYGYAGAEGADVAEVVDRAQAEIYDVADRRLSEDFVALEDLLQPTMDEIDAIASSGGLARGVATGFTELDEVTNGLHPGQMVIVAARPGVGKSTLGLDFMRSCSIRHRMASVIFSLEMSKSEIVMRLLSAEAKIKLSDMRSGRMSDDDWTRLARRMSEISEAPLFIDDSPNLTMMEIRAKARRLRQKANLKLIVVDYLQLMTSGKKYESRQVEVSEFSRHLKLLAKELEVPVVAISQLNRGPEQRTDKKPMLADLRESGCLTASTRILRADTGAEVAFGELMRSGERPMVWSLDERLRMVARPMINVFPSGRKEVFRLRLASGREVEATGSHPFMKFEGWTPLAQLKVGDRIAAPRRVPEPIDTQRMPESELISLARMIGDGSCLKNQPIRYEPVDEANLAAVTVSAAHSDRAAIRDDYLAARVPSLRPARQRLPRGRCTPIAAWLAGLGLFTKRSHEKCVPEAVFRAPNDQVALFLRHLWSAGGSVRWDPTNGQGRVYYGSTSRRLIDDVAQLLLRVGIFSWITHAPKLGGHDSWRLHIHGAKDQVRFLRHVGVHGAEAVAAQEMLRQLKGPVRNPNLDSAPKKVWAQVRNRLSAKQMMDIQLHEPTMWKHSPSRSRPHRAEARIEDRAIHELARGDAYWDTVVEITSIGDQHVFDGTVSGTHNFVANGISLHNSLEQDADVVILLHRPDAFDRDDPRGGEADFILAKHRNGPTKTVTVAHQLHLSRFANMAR

[8] = biological target: Eukaryotic translation initiation factor 4E (Mus musculus, UniProt P63073); assay: eIF4E–eIF4G protein interaction inhibitors, dose response, biochemical, TR-FRET (AID 855); format: functional;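 note: potency for disrupting eIF4E binding to eIF4GI seen as loss of FRET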
Sequence of Eukaryotic translation initiation factor 4E (P63073 whole entry): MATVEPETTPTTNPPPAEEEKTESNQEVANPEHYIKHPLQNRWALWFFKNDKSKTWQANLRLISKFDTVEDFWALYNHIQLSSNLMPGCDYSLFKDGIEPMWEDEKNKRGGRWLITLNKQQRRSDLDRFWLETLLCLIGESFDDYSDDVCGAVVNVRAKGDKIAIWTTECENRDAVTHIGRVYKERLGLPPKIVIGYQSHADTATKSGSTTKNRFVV

Protein RecA = biological target: T5, Protein RecA (Mycobacterium tuberculosis, UniProt P9WHJ3); assay: Fluorescence Cell-Free Homogeneous Dose Retest to Identify Inhibitors of RecA-Intein Splicing Activity. [Related pubchem assays (depositor defined):AID2097, AID2223, AID489010, AID492950]; format: functional
T5 sequence (P9WHJ3 whole entry): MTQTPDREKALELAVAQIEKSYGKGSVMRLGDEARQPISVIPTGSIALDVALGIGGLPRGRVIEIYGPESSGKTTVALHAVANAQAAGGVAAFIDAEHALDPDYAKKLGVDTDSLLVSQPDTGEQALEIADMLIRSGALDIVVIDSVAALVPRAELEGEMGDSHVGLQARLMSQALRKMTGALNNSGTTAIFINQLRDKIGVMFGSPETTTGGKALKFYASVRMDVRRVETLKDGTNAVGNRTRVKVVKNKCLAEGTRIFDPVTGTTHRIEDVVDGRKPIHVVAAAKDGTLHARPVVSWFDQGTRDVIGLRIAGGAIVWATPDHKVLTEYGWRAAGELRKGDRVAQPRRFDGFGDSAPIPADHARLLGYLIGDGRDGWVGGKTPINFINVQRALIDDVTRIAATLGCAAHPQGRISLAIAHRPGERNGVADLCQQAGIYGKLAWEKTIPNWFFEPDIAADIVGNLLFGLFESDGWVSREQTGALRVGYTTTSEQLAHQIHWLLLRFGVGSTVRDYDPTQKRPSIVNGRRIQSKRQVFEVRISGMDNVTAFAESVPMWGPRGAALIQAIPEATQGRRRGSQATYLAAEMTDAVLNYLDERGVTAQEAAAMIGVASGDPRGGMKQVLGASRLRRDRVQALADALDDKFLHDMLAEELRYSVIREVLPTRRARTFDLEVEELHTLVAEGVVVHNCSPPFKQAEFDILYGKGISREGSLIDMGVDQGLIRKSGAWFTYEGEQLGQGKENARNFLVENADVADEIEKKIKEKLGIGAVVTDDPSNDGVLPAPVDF

Protein Tat = Protein Tat (Human immunodeficiency virus type 1 group M subtype B (isolate HXB2)(HIV-1), UniProt P04608); format: functional;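 note: tat binding to TAR RNA read out by fluorescence polarization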
Sequence of Protein Tat (P04608 whole entry): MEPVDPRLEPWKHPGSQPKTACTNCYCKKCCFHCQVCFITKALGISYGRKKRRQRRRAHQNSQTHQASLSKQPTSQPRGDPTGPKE

[9] = biological target: T3, E3 ubiquitin-protein ligase XIAP; assay: Counter Screen using XIAP-Bir3 for Chemical Antagonists of Bir1/2 domains of IAP-family anti-apoptotic proteins. [Related pubchem assays (depositor defined):AID1018, AID1449, AID1514, AID1638, AID1749, AID1750, AID488957, AID488963]
Genome polyprotein = Genome polyprotein (dengue virus type 2, UniProt P29990); assay: Dengue-2 NS5 methyltransferase inhibitors, primary screen, biochemical, confirmation dose response (AID 588689); format: functional
Sequence of Genome polyprotein (P29990 2492-3391 limits assumed): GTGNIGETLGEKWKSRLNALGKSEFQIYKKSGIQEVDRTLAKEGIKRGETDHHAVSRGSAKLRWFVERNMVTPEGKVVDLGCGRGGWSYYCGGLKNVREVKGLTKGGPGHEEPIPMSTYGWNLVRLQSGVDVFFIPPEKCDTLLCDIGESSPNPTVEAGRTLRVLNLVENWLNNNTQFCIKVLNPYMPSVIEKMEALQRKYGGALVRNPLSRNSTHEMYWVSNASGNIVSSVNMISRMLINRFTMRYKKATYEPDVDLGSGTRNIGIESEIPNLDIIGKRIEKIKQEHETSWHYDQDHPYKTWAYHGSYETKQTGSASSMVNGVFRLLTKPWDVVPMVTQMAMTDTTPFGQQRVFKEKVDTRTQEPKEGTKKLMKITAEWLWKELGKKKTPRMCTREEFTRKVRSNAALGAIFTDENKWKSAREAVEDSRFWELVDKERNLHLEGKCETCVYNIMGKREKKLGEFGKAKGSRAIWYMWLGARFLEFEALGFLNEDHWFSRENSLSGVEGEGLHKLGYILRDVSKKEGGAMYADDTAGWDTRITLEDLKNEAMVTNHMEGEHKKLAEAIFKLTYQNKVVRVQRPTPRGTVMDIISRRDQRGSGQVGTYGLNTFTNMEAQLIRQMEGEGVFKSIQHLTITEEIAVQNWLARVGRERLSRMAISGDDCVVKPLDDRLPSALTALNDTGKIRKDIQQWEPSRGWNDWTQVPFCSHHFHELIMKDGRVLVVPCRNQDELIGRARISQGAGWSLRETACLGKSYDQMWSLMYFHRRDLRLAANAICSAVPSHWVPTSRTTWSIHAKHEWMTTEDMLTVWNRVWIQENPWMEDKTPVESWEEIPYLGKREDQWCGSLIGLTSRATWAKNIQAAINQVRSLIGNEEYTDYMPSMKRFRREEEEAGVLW

Hexokinase HKDC1 = biological target: T6, Hexokinase HKDC1 (Homo sapiens, UniProt Q2TB90); assay: HKDC1 hexokinase inhibitors, dose response, biochemical, W721R variant (AID 504729); format: functional
T6 sequence (Q2TB90 whole entry): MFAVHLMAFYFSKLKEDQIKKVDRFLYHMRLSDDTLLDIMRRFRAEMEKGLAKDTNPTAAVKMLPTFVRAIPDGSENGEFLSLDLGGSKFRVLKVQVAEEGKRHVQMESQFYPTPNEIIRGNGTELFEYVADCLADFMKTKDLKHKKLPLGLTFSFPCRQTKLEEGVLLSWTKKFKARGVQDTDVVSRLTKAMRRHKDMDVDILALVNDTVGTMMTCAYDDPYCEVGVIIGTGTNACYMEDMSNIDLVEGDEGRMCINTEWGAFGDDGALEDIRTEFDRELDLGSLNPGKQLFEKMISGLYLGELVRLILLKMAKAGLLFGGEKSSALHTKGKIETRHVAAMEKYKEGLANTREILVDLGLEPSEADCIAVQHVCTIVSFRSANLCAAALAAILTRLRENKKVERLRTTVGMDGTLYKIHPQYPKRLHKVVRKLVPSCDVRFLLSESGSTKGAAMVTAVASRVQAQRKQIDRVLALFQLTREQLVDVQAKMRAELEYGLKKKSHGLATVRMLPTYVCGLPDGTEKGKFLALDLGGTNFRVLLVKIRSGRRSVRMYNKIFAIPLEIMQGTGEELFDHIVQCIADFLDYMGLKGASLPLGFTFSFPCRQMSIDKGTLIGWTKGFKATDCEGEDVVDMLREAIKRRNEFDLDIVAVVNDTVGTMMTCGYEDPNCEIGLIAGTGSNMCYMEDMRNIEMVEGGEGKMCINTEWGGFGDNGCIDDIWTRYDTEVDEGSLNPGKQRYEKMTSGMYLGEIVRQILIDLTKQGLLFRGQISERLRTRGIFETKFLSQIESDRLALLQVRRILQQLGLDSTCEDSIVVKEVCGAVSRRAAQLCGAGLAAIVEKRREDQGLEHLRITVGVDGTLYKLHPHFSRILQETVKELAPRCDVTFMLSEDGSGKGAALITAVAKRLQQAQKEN

[10] = inhibitors of Vif binding to APOBEC3G peptide, primary screen, biochemical, TR-FRET, GST-Vif 1-94, biotin-A3G peptide, dose response retest (AID 1117319); format: functional;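 note: TR-FRET signal of purified GST-Vif binding a biotinylated A3G peptide; inhibitors lower the FRET signal by blocking Vif and A3G binding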

## Cc1ccc2oc(=O)c(/C=C(\O)c3ccco3)nc2c1
[1]
  IC50: 5.13 µM (active)
[2]
  EC50: 4.74 µM (active)

## Cc1cccc(N(O)C(=O)Nc2cccc(Cl)c2)c1
[1]
  IC50: 5.44 µM (active)

## O=C(/C=C/c1ccccc1)Nc1cccc(S(=O)(=O)Nc2ccccc2F)c1
[3]
  IC50: 20 µM (active)
[4]
  IC50: 31.9 µM (active)

## Oc1nc2ccccc2n2c(-c3ccccc3)nnc12
[5]
  IC50: 41.6 µM (inactive)
[6]
  IC50: > 100 µM (not active)
[7]
  AC50: > 380 µM (inactive)
[8]
  IC50: 34.4 µM (inactive)
Protein RecA
  EC50: 12.8 µM (active)
Protein Tat
  IC50: > 100 µM (active)
[9]
  IC50: > 100 µM (inactive)
Genome polyprotein
  IC50: 8.26 µM (active)
Hexokinase HKDC1
  IC50: 7.52 µM (active)

## Cc1ccc(CCNC(=O)C2CCCN(S(=O)(=O)c3c(C)noc3/C=C/N(C)C)C2)cc1 (stereo not given)
[10]
  IC50: > 100 µM (active)
